Data from publication PMC9848257, “Design and synthesis of novel rigid dibenzo[b,f]azepines through ring closure technique as promising anticancer candidates against leukaemia and acting as selective topoisomerase II inhibitors and DNA intercalators” (Journal of Enzyme Inhibition and Medicinal Chemistry, 2023).

Key:
LOX IMVI = assay: NCI-60 one-dose screen, LOX IMVI; assay type: cell-based; settings: Homo sapiens, melanoma, single dose 10 μM, read-out: Growth inhibition %
Procedure: (§1) Anti-proliferative effects of the counterparts 4a–g and 5a–g were screened against 60 human cancer cell lines, following the Developmental Therapeutics Program protocol, National Cancer Institute[35].
(§2) The anti-tumour activity of the fourteen synthesised congeners was investigated at the NCI against a panel of 60 cancer cell lines (NCI-60 Cell One-Dose Screen). The tested dibenzo[b,f]azepine derivatives were screened at a single dose level (10 μM), Table 1.

EKVX = assay: NCI-60 one-dose screen, EKVX; assay type: cell-based; settings: Homo sapiens, non-small cell lung cancer, single dose 10 μM, read-out: Growth inhibition %
Procedure: as §1, §2

A498 = assay: NCI-60 one-dose screen, A498; assay type: cell-based; settings: Homo sapiens; A498, renal cancer; single dose 10 μM; read-out: Growth inhibition %
Procedure: as §1, §2

MDA-MB-468 = assay: NCI-60 one-dose screen, MDA-MB-468; assay type: cell-based; settings: Homo sapiens; MDA-MB-468, breast cancer; single dose 10 μM; read-out: Growth inhibition %
Procedure: as §1, §2

OVCAR-8 = assay: NCI-60 one-dose screen, OVCAR-8; assay type: cell-based; settings: Homo sapiens; OVCAR-8, ovarian cancer; single dose 10 μM; read-out: Growth inhibition %
Procedure: as §1, §2

UACC-257 = assay: NCI-60 one-dose screen, UACC-257; assay type: cell-based; settings: Homo sapiens; UACC-257, melanoma; single dose 10 μM; read-out: Growth inhibition %
Procedure: as §1, §2

NCI-H460 = assay: NCI-60 one-dose screen, NCI-H460; assay type: cell-based; settings: Homo sapiens; NCI-H460, non-small cell lung cancer; single dose 10 μM; read-out: Growth inhibition %
Procedure: as §1, §2

HL-60(TB) = assay: NCI-60 one-dose screen, HL-60(TB); assay type: cell-based; settings: Homo sapiens, leukaemia, single dose 10 μM, read-out: Growth inhibition %
Procedure: as §1, §2

M14 = assay: NCI-60 one-dose screen, M14; assay type: cell-based; settings: Homo sapiens; M14, melanoma; single dose 10 μM; read-out: Growth inhibition %
Procedure: as §1, §2

HS 578 T = assay: NCI-60 one-dose screen, HS 578 T; assay type: cell-based; settings: Homo sapiens, breast cancer, single dose 10 μM, read-out: Growth inhibition %
Procedure: as §1, §2

NCI-H522 = assay: NCI-60 one-dose screen, NCI-H522; assay type: cell-based; settings: Homo sapiens; NCI-H522, non-small cell lung cancer; single dose 10 μM; read-out: Growth inhibition %
Procedure: as §1, §2

RXF 393 = assay: NCI-60 one-dose screen, RXF 393; assay type: cell-based; settings: Homo sapiens; RXF 393, renal cancer; single dose 10 μM; read-out: Growth inhibition %
Procedure: as §1, §2

T-47D = assay: NCI-60 one-dose screen, T-47D; assay type: cell-based; settings: Homo sapiens, T47D, breast cancer, single dose 10 μM, read-out: Growth inhibition %
Procedure: as §1, §2

HOP-92 = assay: NCI-60 one-dose screen, HOP-92; assay type: cell-based; settings: Homo sapiens; HOP-92, non-small cell lung cancer; single dose 10 μM; read-out: Growth inhibition %
Procedure: as §1, §2

HOP-62 = assay: NCI-60 one-dose screen, HOP-62; assay type: cell-based; settings: Homo sapiens; HOP-62, non-small cell lung cancer; single dose 10 μM; read-out: Growth inhibition %
Procedure: as §1, §2

SN12C = assay: NCI-60 one-dose screen, SN12C; assay type: cell-based; settings: Homo sapiens, renal cancer, single dose 10 μM, read-out: Growth inhibition %
Procedure: as §1, §2

U251 = assay: NCI-60 one-dose screen, U251; assay type: cell-based; settings: Homo sapiens, U-251; U251, CNS cancer; single dose 10 μM; read-out: Growth inhibition %
Procedure: as §1, §2

UACC-62 = assay: NCI-60 one-dose screen, UACC-62; assay type: cell-based; settings: Homo sapiens; UACC-62, melanoma; single dose 10 μM; read-out: Growth inhibition %
Procedure: as §1, §2

PC-3 = assay: NCI-60 one-dose screen, PC-3; assay type: cell-based; settings: Homo sapiens; PC-3, prostate cancer; single dose 10 μM; read-out: Growth inhibition %
Procedure: as §1, §2

K-562 = assay: NCI-60 one-dose screen, K-562; assay type: cell-based; settings: Homo sapiens, K562; K-562, leukaemia; single dose 10 μM; read-out: Growth inhibition %
Procedure: as §1, §2

SF-295 = assay: NCI-60 one-dose screen, SF-295; assay type: cell-based; settings: Homo sapiens; SF-295, CNS cancer; single dose 10 μM; read-out: Growth inhibition %
Procedure: as §1, §2

MDA-MB-231-ATCC = assay: NCI-60 one-dose screen, MDA-MB-231-ATCC; assay type: cell-based; settings: Homo sapiens, breast cancer, single dose 10 μM, read-out: Growth inhibition %
Procedure: as §1, §2

CCRF-CEM = assay: NCI-60 one-dose screen, CCRF-CEM; assay type: cell-based; settings: Homo sapiens, leukaemia, single dose 10 μM, read-out: Growth inhibition %
Procedure: as §1, §2

OVCAR-5 = assay: NCI-60 one-dose screen, OVCAR-5; assay type: cell-based; settings: Homo sapiens; OVCAR-5, ovarian cancer; single dose 10 μM; read-out: Growth inhibition %
Procedure: as §1, §2

HCT-15 = assay: NCI-60 one-dose screen, HCT-15; assay type: cell-based; settings: Homo sapiens; HCT-15, colon cancer; single dose 10 μM; read-out: Growth inhibition %
Procedure: as §1, §2

ACHN = assay: NCI-60 one-dose screen, ACHN; assay type: cell-based; settings: Homo sapiens, renal cancer, single dose 10 μM, read-out: Growth inhibition %
Procedure: as §1, §2

NCI-H322M = assay: NCI-60 one-dose screen, NCI-H322M; assay type: cell-based; settings: Homo sapiens, non-small cell lung cancer, single dose 10 μM, read-out: Growth inhibition %
Procedure: as §1, §2

MOLT-4 = assay: NCI-60 one-dose screen, MOLT-4; assay type: cell-based; settings: Homo sapiens; MOLT-4, leukaemia; single dose 10 μM; read-out: Growth inhibition %
Procedure: as §1, §2

786-0 = assay: NCI-60 one-dose screen, 786-0; assay type: cell-based; settings: Homo sapiens; 786-0, renal cancer; single dose 10 μM; read-out: Growth inhibition %
Procedure: as §1, §2

SK-MEL-5 = assay: NCI-60 one-dose screen, SK-MEL-5; assay type: cell-based; settings: Homo sapiens; SK-MEL-5, melanoma; single dose 10 μM; read-out: Growth inhibition %
Procedure: as §1, §2

SF-539 = assay: NCI-60 one-dose screen, SF-539; assay type: cell-based; settings: Homo sapiens; SF-539, CNS cancer; single dose 10 μM; read-out: Growth inhibition %
Procedure: as §1, §2

COLO 205 = assay: NCI-60 one-dose screen, COLO 205; assay type: cell-based; settings: Homo sapiens; COLO 205, colon cancer; single dose 10 μM; read-out: Growth inhibition %
Procedure: as §1, §2

NCI-H23 = assay: NCI-60 one-dose screen, NCI-H23; assay type: cell-based; settings: Homo sapiens; NCI-H23, non-small cell lung cancer; single dose 10 μM; read-out: Growth inhibition %
Procedure: as §1, §2

MCF-7 = assay: NCI-60 one-dose screen, MCF-7; assay type: cell-based; settings: Homo sapiens, MCF7; MCF-7, breast cancer; single dose 10 μM; read-out: Growth inhibition %
Procedure: as §1, §2

Row | SMILES | inhibition at 10 µM (LOX IMVI) | inhibition at 10 µM (EKVX) | inhibition at 10 µM (A498) | inhibition at 10 µM (MDA-MB-468) | inhibition at 10 µM (OVCAR-8) | melting point | inhibition at 10 µM (UACC-257) | inhibition at 10 µM (NCI-H460) | inhibition at 10 µM (HL-60(TB)) | inhibition at 10 µM (M14) | inhibition at 10 µM (HS 578 T) | inhibition at 10 µM (NCI-H522) | inhibition at 10 µM (RXF 393) | inhibition at 10 µM (T-47D) | inhibition at 10 µM (HOP-92) | inhibition at 10 µM (HOP-62) | inhibition at 10 µM (SN12C) | inhibition at 10 µM (U251) | inhibition at 10 µM (UACC-62) | inhibition at 10 µM (PC-3) | other results
1 | O=C(NNC(=O)N1c2ccccc2C=Cc2ccccc21)c1ccc([N+](=O)[O-])cc1 [Compound 4e, N′-(4-Nitrobenzoyl)-5H-dibenzo[b,f]azepine-5-carbohydrazide] | < 10% | < 10% | < 10% | < 10% | < 10% | 241 to 243 °C | < 10% | < 10% | < 10% | < 10% | < 10% | < 10% | < 10% | < 10% | < 10% | < 10% | < 10% | < 10% | < 10% | < 10% | inhibition at 10 µM (K-562): < 10%; inhibition at 10 µM (SF-295): < 10%; inhibition at 10 µM (MDA-MB-231-ATCC): < 10%; inhibition at 10 µM (CCRF-CEM): < 10%; inhibition at 10 µM (OVCAR-5): < 10%; inhibition at 10 µM (HCT-15): < 10%; inhibition at 10 µM (ACHN): < 10%; inhibition at 10 µM (NCI-H322M): < 10%; inhibition at 10 µM (MOLT-4): < 10%; inhibition at 10 µM (786-0): < 10%; inhibition at 10 µM (SK-MEL-5): < 10%; inhibition at 10 µM (SF-539): < 10%; inhibition at 10 µM (COLO 205): < 10%; inhibition at 10 µM (NCI-H23): < 10%; inhibition at 10 µM (MCF-7): < 10%
2 | O=C(NNC(=O)N1c2ccccc2C=Cc2ccccc21)c1ccc(Cl)cc1 [Compound 4c, N′-(4-Chlorobenzoyl)-5H-dibenzo[b,f]azepine-5-carbohydrazide] | < 10% | < 10% | < 10% | < 10% | < 10% | 229 to 231 °C | 12.6% | < 10% | < 10% | < 10% | < 10% | < 10% | < 10% | < 10% | < 10% | < 10% | < 10% | < 10% | < 10% | < 10% | inhibition at 10 µM (K-562): < 10%; inhibition at 10 µM (SF-295): < 10%; inhibition at 10 µM (MDA-MB-231-ATCC): < 10%; inhibition at 10 µM (CCRF-CEM): < 10%; inhibition at 10 µM (OVCAR-5): < 10%; inhibition at 10 µM (HCT-15): < 10%; inhibition at 10 µM (ACHN): 13.3%; inhibition at 10 µM (NCI-H322M): < 10%; inhibition at 10 µM (MOLT-4): < 10%; inhibition at 10 µM (786-0): < 10%; inhibition at 10 µM (SK-MEL-5): < 10%; inhibition at 10 µM (SF-539): < 10%; inhibition at 10 µM (COLO 205): < 10%; inhibition at 10 µM (NCI-H23): < 10%; inhibition at 10 µM (MCF-7): < 10%
